Laboratory results as given in patent US5633248A, “Amine compounds, their production and use” (priority 1994, dated 1997).
Structures can show the parent of a compound that is named as a salt.

What was measured:
Human GnRH receptor = target: T1, Human GnRH receptor (Homo sapiens, UniProt P30968); test: ^125 I-leuprolerin binding inhibition, human GnRH receptor-expressed CHO cell membrane fraction; details: 25° C. for 60 minutes, read-out: GnRH-receptor binding inhibitory activity (IC50, μM) Man
T1 construct: expressed in transfected cells; host or cells: CHO (Chinese hamster ovary) cells, membrane fraction
T1 sequence (P30968 1-328): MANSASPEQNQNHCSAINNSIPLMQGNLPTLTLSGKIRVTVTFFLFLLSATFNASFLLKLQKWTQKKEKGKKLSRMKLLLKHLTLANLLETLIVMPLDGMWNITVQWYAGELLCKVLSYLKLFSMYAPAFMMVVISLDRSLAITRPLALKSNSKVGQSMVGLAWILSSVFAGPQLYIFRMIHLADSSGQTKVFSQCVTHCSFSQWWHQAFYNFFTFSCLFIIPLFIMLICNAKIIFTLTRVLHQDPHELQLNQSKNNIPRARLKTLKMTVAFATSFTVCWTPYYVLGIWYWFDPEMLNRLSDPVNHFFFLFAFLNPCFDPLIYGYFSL
Method: A tube was filled with 10 μl of an aqueous solution of leuprolerin (3×10^4 M) and lactoperoxidase (0.01 mg/ml) followed by addition of 10 μl of Na^125 I solution (37 MBq). After stirring, 10 μl of 0.001% H2 O2 was added and the reaction was conducted at room temperature for 20 minutes. The reaction was stopped by adding 700 μl of 0.05% TFA and the reaction mixture was subjected to reversed-phase HPLC under the conditions set forth below. ^125 I-leuprolerin was eluted with a retention time of 26-27 minutes. […] To the sediment was added 10 ml of a cell homogenate buffer (10 mM NaHCO3, 5 mM EDTA, pH 7.5) and the mixture was homogenized using a Polytron homogenizer. The homogenate was centrifuged at 400 xg for 15 minutes and the supernatant was transferred to an ultracentrifuge cuvette and centrifuged at 100,000 xg for 1 hour to prepare a membrane fraction pellet. This pellet was suspended in 2 ml of the assay buffer and further centrifuged at 100,000 xg for 1 hour. The membrane fraction recovered as a pellet was resuspended in 20 ml of the assay buffer, distributed into vials, preserved at -80° C., and reconstituted before use. The rat and human membrane fractions prepared under (B) and (D) were respectively diluted with the assay buffer to make 200 μg/ml each and 188 μl aliquots of each dilution were distributed into tubes. The bovine membrane fraction prepared under (C) was diluted with the assay buffer to make 750 μg/ml and 188 μl aliquots of the dilution were distributed into tubes. When the rat anterior pituitary membrane fraction was used, 2 μl of 0.1 mM compound/60% dimethyl sulfoxide (DMSO) and 10 μl of 38 nM ^125 I-leuprolerin were concurrently added. […] For determination of maximum binding, a reaction mixture was prepared by adding 2 μl of 60% DMSO and 10 μl of 38 nM ^125 I-leuprolerin. For determination of non-specific binding, a reaction mixture was prepared using 2 μl of 100 μM leuprolerin/60% DMSO and 10 μl of […] ^125 I-leuprolerin. When the rat and bovine anterior pituitary membrane fractions were used, each reaction was carried out at 4° C. for 90 minutes. On the other hand, when the human GnRH receptor-expressed CHO cell membrane fraction was used, the reaction was conducted at 25° C. for 60 minutes. After completion of the reaction, the reaction mixture was suction-filtered through a polyethyleneimine-treated Whatman glass filter (GF-F) [trademark;whatman]. After filtration, the radioactivity of the residual ^125 I-leuprolerin on the filter was measured using a γ-counter. The computation formula of (TB-SB)/(TB-NSB)×100 (SB=radioactivity bound in the presence of the test compound, TB=maximum amount of radioactivity bound, NSB=amount of radioactivity nonspecifically bound) was calculated to find the binding inhibition rate for the test compound. Moreover, the inhibition rate was determined by varying the concentration of each test compound and the concentration of the compound causing 50% inhibition of binding (IC50 value) was calculated by Hill plot.

Rat GnRH Receptor = target: T2, Rat GnRH Receptor (Rattus norvegicus, UniProt P30969); test: ^125 I-leuprolerin binding inhibition, rat anterior pituitary membrane fraction; set-up: species or system rat (Wistar); details: 4° C. for 90 minutes, read-out: GnRH-receptor binding inhibitory activity (IC50, μM) Rat
T2 construct: from tissue; host or cells: anterior pituitary of male Wistar rats (8 weeks old), membrane fraction
T2 sequence (P30969 1-327): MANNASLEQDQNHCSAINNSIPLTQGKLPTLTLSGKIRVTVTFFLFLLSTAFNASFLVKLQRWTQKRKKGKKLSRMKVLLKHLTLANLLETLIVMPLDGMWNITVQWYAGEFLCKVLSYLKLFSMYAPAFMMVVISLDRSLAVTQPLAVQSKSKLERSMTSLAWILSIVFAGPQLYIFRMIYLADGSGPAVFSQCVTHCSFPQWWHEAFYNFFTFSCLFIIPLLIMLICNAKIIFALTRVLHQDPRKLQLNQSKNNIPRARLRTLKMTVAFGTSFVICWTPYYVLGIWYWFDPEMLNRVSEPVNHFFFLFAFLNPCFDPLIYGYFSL
Method: A tube was filled with 10 μl of an aqueous solution of leuprolerin (3×10^4 M) and lactoperoxidase (0.01 mg/ml) followed by addition of 10 μl of Na^125 I solution (37 MBq). After stirring, 10 μl of 0.001% H2 O2 was added and the reaction was conducted at room temperature for 20 minutes. The reaction was stopped by adding 700 μl of 0.05% TFA and the reaction mixture was subjected to reversed-phase HPLC under the conditions set forth below. ^125 I-leuprolerin was eluted with a retention time of 26-27 minutes. Forty rats (8 weeks old, male) of Wistar strain were decapitated under no anesthesia and the anterior pituitary isolated from each animal was washed with an ice-cooled homogenate buffer (25 mM Tris (tris(hydroxylmethyl)aminomethane)-HCl, 0.3M sucrose, 1 mM EGTA (ethylene-bis(oxyethylenenitrilo)tetraacetic acid), 0.25 mM PMSF (phenylmethylsulfonyl fluoride), 10 U/ml aprotinin, 1 μg/ml pepstatin, 20 μg/ml leupeptin, 100 μg/ml phosphoramidon, 0.03% sodium azide; pH 7.5). The anterior pituitary was suspended in 2 ml of the same homogenate buffer as above and homogenized using a Polytron homogenizer. The homogenate thus prepared was centrifuged at 700 xg for 15 minutes and the supernatant was transferred to an ultracentrifuge cuvette and further centrifuged at 100,000 xg for 1 hour to provide a membrane fraction pellet. This pellet was suspended in 2 ml of an assay buffer (25 mM Tris-HCl, 1 mM ethylenediaminetetraacetic acid (EDTA), 0.1% bovine serum albumin (BSA), 0.25 mM PMSF, 1 μg/ml pepstatin, 20 μg/ml leupeptin, 100 μg/ml phosphoramidon, 0.03% sodium azide; pH 7.5) and centrifuged at 100,000 xg for 1 hour. The membrane fraction recovered as a pellet was resuspended in 10 ml of the same assay buffer as above, distributed into vials, preserved at -80° C., and reconstituted before use. The rat and human membrane fractions prepared under (B) and (D) were respectively diluted with the assay buffer to make 200 μg/ml each and 188 μl aliquots of each dilution were distributed into tubes. The bovine membrane fraction prepared under (C) was diluted with the assay buffer to make 750 μg/ml and 188 μl aliquots of the dilution were distributed into tubes. When the rat anterior pituitary membrane fraction was used, 2 μl of 0.1 mM compound/60% dimethyl sulfoxide (DMSO) and 10 μl of 38 nM ^125 I-leuprolerin were concurrently added. […] For determination of maximum binding, a reaction mixture was prepared by adding 2 μl of 60% DMSO and 10 μl of 38 nM ^125 I-leuprolerin. For determination of non-specific binding, a reaction mixture was prepared using 2 μl of 100 μM leuprolerin/60% DMSO and 10 μl of […] ^125 I-leuprolerin. When the rat and bovine anterior pituitary membrane fractions were used, each reaction was carried out at 4° C. for 90 minutes. On the other hand, when the human GnRH receptor-expressed CHO cell membrane fraction was used, the reaction was conducted at 25° C. for 60 minutes. After completion of the reaction, the reaction mixture was suction-filtered through a polyethyleneimine-treated Whatman glass filter (GF-F) [trademark;whatman]. After filtration, the radioactivity of the residual ^125 I-leuprolerin on the filter was measured using a γ-counter. The computation formula of (TB-SB)/(TB-NSB)×100 (SB=radioactivity bound in the presence of the test compound, TB=maximum amount of radioactivity bound, NSB=amount of radioactivity nonspecifically bound) was calculated to find the binding inhibition rate for the test compound. Moreover, the inhibition rate was determined by varying the concentration of each test compound and the concentration of the compound causing 50% inhibition of binding (IC50 value) was calculated by Hill plot.

IC50 (Human GnRH receptor) [µM] | IC50 (Rat GnRH Receptor) [µM] | Compound
0.3 | 0.003 | COc1cc2c(cc1OC)CC1(CCCCN1CCCC(CCCNC(=O)Cc1cccc3ccccc13)(c1ccccc1)c1ccccc1)CC2 (stereo not shown) [II-66, 3,4-Dihydro-6,7-dimethoxy-1'-{4,4-diphenyl-7-[(1-naphthylacetyl)amino]heptyl}spiro[naphthalene-2(1H),2'-piperidine] hydrochloride]
0.4 | 0.009 | COc1ccc(CC(=O)NCCCC(CCCN2CCCCC23CCc2cc(OC)c(OC)cc2C3)(c2ccc(F)cc2)c2ccc(F)cc2)cc1 (stereo not shown) [II-68, 3,4-Dihydro-6,7-dimethoxy-1'-{4,4-bis(4-fluorophenyl)-7-[(4-methoxyphenylacetyl)amino]heptyl}spiro[naphthalene-2(1H),2'-piperidine] hydrochloride]

The remaining lines, values behind:

Compound | IC50 (Human GnRH receptor) [µM] | IC50 (Rat GnRH Receptor) [µM]
COc1cc2c(cc1OC)CC1(CCCCN1CCCC(CCCNC(=O)Cc1ccsc1)(c1ccccc1)c1ccccc1)CC2 (stereo not shown) [II-63, 3,4-Dihydro-6,7-dimethoxy-1'-{4,4-diphenyl-7-[(3-thienylacetyl)amino]heptyl}spiro[naphthalene-2(1H),2'-piperidine] hydrochloride] | 0.4 | 0.001
COc1cc2c(cc1OC)CC1(CCCCN1CCCC(CCCNC(=O)CCc1ccccc1)(c1ccccc1)c1ccccc1)CC2 (stereo not shown) [II-64, 3,4-Dihydro-6,7-dimethoxy-1'-{4,4-diphenyl-7-[(3-phenylpropionyl)amino]heptyl}spiro[naphthalene-2(1H),2'-piperidine] hydrochloride] | 0.2 | 0.009
COc1ccc(CCC(=O)NCCCC(CCCN2CCCCC23CCc2cc(OC)c(OC)cc2C3)(c2ccccc2)c2ccccc2)cc1 (stereo not shown) [II-65, 3,4-Dihydro-6,7-dimethoxy-1'-{4,4-diphenyl-7-{[3-(4-methoxyphenyl)propionyl]amino}heptyl}spiro[naphthalene-2(1H),2'-piperidine] hydrochloride] | 0.02 | 0.001
